Experimental data from patent EP0181578B1, “Antibiotic polypeptide, process for its preparation and its use” (Dr. Karl Thomae GmbH, priority 1984, dated 1991).
Ends that are not written are not given here.

Tests used:
[1] = test system: Staphylococcus epidermidis DSM 3095; assay: Resistance and sensitivity of the producer strain (strain characterisation, adaptation to rising Epidermin concentrations); format: cell-based; conditions: for Sonstige Resistenzen: in Flüssigkultur, marked resistance
Excerpt: Der zur Herstellung von Epidermin verwendete Stamm wird nach Schleifer & Kloos (Int. J. Syst. Bact. 25, 50-61 (1975)) wie folgt charakterisiert: Gramfärbung : positiv Zellgröße : Durchmesser 0,5-0,8 µm Koloniengröße : ca. 1 mm Durchmesser Aussehen der Kolonien : glatt, glänzend, in der Mitte leicht erhöht Kolonienfarbe : gräulich - weiß Zellen in Kultur : oft Einzelzellen oder Zweier-Pakete, selten größere Haufen Hämolyse : auf Blutplatten ausgestrichene Kulturen zeigten starke Hämolyse Anaerobes Wachstum : der Stamm wächst auch unter anaeroben Bedingungen Lysozymempfindlichkeit: : die Zellen sind bis 2 mg/ml resistent gegen Lysozym Lysostaphinempfindlichkeit : die Zellen sind schon bei 20 µg/ml sensitiv für Lysostaphin Epidermin-Resistenz : bis 1 mg/ml nachgewiesen Sonstige Resistenzen : in Flüssigkultur zeigt der Stamm eine ausgeprägte Resistenz gegenüber Streptomycin (bis 1 mg/ml) und Spectinomycin (0,5 mg/ml) Erhöhter NaCl-Gehalt : Der Stamm wächst noch gut bis 15% Gew.-% Natriumchlorid.
(§1) Der neue Klon DSM 3095 wurde wie folgt gewonnen: Die Adaption wurde in 100 ml Erlenmeyerkölbchen mit einem seitlichen Einstich und 10 ml Nährlösung (Brain Heart Infusion) durchgeführt. Die Startkultur wurde mit 0,5 ml einer 12 Stunden alten Kultur angeimpft. Für die Kölbchen, die steigende Epidermin-Konzentrationen enthielten, dienten 0,5 ml der jeweils vorangegangenen, gutgewachsenen Kultur als Impfmaterial. Die Beurteilung des Wachstums erfolgte photometrisch bei 578 nm. […] Als Vergleichswert wurde eine unverdünnte 12 Stunden alte Kultur des literaturbekannten Vergleichsstammes NCIB 11536 ausplattiert. Nach 24 Stunden Inkubation bei 37°C zeigten sich bei der auf 10⁻⁶ verdünnten adaptierten Kultur 94 Einzelkolonien. […] Die resistenten Kolonien wurden selektioniert und auf Platten Medium 2 im Raster ausgestrichen. Nach einem Vortest auf Produktion durch Ausstechen von Stückchen mit 5 mm Durchmesser und Aktivitätstest auf Micrococcus luteus ATCC 9341 wurden produzierende Klone im Flüssigmedium getestet.

[2] = Solubility (characterisation data); format: physicochemical
Excerpt: (§2) Die neue Verbindung Epidermin kann durch folgende Angaben charakterisert werden: • 1. Natur: farbloses Pulver • 2. […] Methanol/Eisessig, löslich in niederen Alkoholen, unlöslich in Chloroform, Aceton, Diethylether, Petrolether. • 3. Farbreaktion auf Kieselgelplatten: Ninhydrin, Chlor/TDM (TDM=4,4'-Bis-(dimethylamino)diphenylmethan), Orcin/Schwefelsäure, Anisaldehyd/Schwefelsäure. Zerstörungsfreier Nachweis im UV-Licht bei 254 nm und durch Sprühen mit Wasser. • 4. Dünnschichtchromatographie: Es wurden Kieselgelfertigplatten 60 F₂₅₄ (Merck) verwendet. System A: Chloroform/Methanol/17% Ammoniak (2/2/1), RF = 0,73 System B: Chloroform/Methanol/17% Ammoniak (70/35/10) RF = 0,30 System C: n-Butanol/Eisessig/Wasser (4/1/1) RF = 0,05 • 5. HPLC : siehe Abb. 7. • 6. […] Molmasse: im Bereich von 2160. Je nach Isolierungsmethoden können als Anionen, z.B. Chlorid, Acetat oder Phosphat, enthalten sein. • 8. Ultraviolettabsorptionsspektrum: In wässriger Lösung langwelliges Maximum bei 267 nm (Abb. 3). • 9. Infrarotabsorptionsspektrum: IR-Spektrum einer Probe in einer Kaliumbromidtablette (Abb. 4). • 10. Kernmagnetische Resonanzspektren ¹H-NMR Spektrum: Abb. 5, ¹³C-NMR-Spektrum: Abb. 6

[3] = pH stability, retention of antibiotic activity in aqueous solutions of different pH; format: physicochemical
Excerpt: as §2
Stabilitätstests und chromatographische Untersuchungen wurden am lyophylisierten Butanolextrakt durchgeführt. Die Inkubation des Extraktes mit wässrigen Lösungen verschiedener pH-Werte ergab ab pH 10 eine starke Abnahme der Aktivität, im Bereich von pH 2-7 ist das Antibiotikum jedoch stabil.

[4] = test system: Vergleichsstamm NCIB 11536; assay: Growth of the comparison strain on plates containing Epidermin; format: cell-based, Staphylococcus epidermidis; conditions: undiluted 12 h culture on plates with 0,15 mg/ml Epidermin, 48 Stunden
Procedure: as §1

[5] = test system: Staphylococcus epidermidis NCIB 11536; assay: Biophotometer test, Epidermin added in different growth phases; format: cell-based
Procedure: (§3) Die Versuche zur Eigenhemmung des Produzentenstammes durch das Antibiotikum und die Untersuchung auf Resistenz der selektionierten Klone wurden im Biophotometer (Eppendorf-Photometer mit Umlaufautomat) durchgeführt.
(§4) Diese Versuche können z.B. im einzelnen wie folgt durchgeführt werden: Jeweils 0,5 ml einer 12 Stunden Kultur von Staphylococcus epidermidis NCIB 11536 bzw. des selektionierten resistenten Stammes DMS 3095 wurden auf frisches Medium überimpft.
(§5) Diese Kulturen ließ man bis zu einer Extinktion von 0,043 bei 578 nm hochwachsen (Küvetten mit einer Schichtdicke von 1 cm) und verteilte sie dann in Portionen zu 7,5 ml in die Küvetten des Biophotometers (Schichtdicke 2 cm).
(§6) Die Dichte der Zellsuspension wurde im Biophotometer auf eine Transmission von 90% eingestellt. Die Inkubation erfolgte bei 37°C und maximaler Belüftung. Epidermin wurde als wässrige Lösung in unterschiedlichen Wachstumsphasen zugegeben.
(§7) Bei beiden Stämmen wurden zu Beginn und in der Mitte der logarithmischen Phase unterschiedliche Epidermin-Konzentrationen zugegeben. Die Ergebnisse sind in Abbildung 13 und 14 dargestellt.

[6] = test system: resistenter Klon DSM 3095; assay: as above; format: cell-based, Staphylococcus epidermidis
Procedure: as §3, §4, §5, §6, §7

[7] = test system: verschiedener Mikroorganismen; assay: Plate diffusion test, spectrum of activity; format: cell-based; conditions: for Empfindlichkeit verschiedener Mikroorganismen: Plattendiffusionstest, Tabelle 2
Excerpt: Während der Herstellung und Isolierung des Epidermins wurde zur biologischen Charakterisierung der Plattendiffusionstest angewandt; nämlich zur Aufnahme des Wirkungsspektrums sowie zur Kontrolle von Produktion, Aufarbeitung und Anreicherung. Der Test wurde, wie bei Zähner und Maas, Biology of antibiotics (Springer Verlag, Berlin-Heidelberg-New York, 1972) beschrieben, in Petrischalen der Firma Greiner, Nürtingen mit Filterrondellen von 6 mm Durchmesser (Macherey & Nagel, Düren) durchgeführt. Die Filterrondellen wurden mit 20 µl der betreffenden Testflüssigkeit benetzt, bei Raumtemperatur auf einer Glasplatte getrocknet und auf die Testplatten aufgelegt. Die Testplatten wurden bei 37°C inkubiert und nach ca. 16 Stunden die Wachstumshemmung ausgewertet. Als Routinetestkeim diente Streptococcus pyogenes ATCC 8668 und, aufgrund seiner problemloseren Handhabung, Micrococcus luteus ATCC 9341. Testplatten mit Streptococcus pyogenes ATCC 8668: Der Testkeim mußte vor Herstellung der Testplatten auf Blutplatten mit Mucin [Medium: 500 ml Agar pH 7,4, 160 ml Mucinlösung (10 Gewichtsprozent), 3,5 ml Glucoselösung (50 Gewichtsprozent), 70 ml Hammelblut] frisch überimpft werden. Nach 15-18 Stunden Inkubation bei 37°C wurde eine Salinesuspension (E₅₇₈ 0,5) hergestellt und 1 ml dieser Suspension zu 100 ml Nährboden (Medium: Pepton 10 g, Fleischextrakt 8 g, Kochsalz 3 g, Na₂HPO₄ 2 g, Glucose 10 g auf 1 l, pH 7,2) pipettiert. Die zu 10 ml Portionen gegossenen Platten waren einige Tage bei 4°C haltbar. Testplatten mit Micrococcus luteus ATCC 9341: Eine Übernachtkultur (Medium: Pepton 10 g, Fleischextrakt 8 g, Kochsalz 3 g, Na₂HPO₄ 2 g, Glucose 10 g auf 1 l, pH 7,2) wurde auf eine Extinktion von 1,0 bei 578 nm verdünnt. Mit 0,25 ml dieser Suspension wurden 100 ml Agar angeimpft und Platten zu 10 ml gegossen. Die Testplatten konnten mehrere Tage bei 4°C aufbewahrt werden. […]

[8] = test system: Propionibakteriumacnes-Stämme; assay: Plate diffusion test and minimal inhibitory concentration (Tables 2 and 3); format: cell-based, Propionibacterium acnes; conditions: summary of Tabellen 2 und 3
Excerpt: Während der Herstellung und Isolierung des Epidermins wurde zur biologischen Charakterisierung der Plattendiffusionstest angewandt; nämlich zur Aufnahme des Wirkungsspektrums sowie zur Kontrolle von Produktion, Aufarbeitung und Anreicherung. Der Test wurde, wie bei Zähner und Maas, Biology of antibiotics (Springer Verlag, Berlin-Heidelberg-New York, 1972) beschrieben, in Petrischalen der Firma Greiner, Nürtingen mit Filterrondellen von 6 mm Durchmesser (Macherey & Nagel, Düren) durchgeführt. Die Filterrondellen wurden mit 20 µl der betreffenden Testflüssigkeit benetzt, bei Raumtemperatur auf einer Glasplatte getrocknet und auf die Testplatten aufgelegt. Die Testplatten wurden bei 37°C inkubiert und nach ca. 16 Stunden die Wachstumshemmung ausgewertet. Als Routinetestkeim diente Streptococcus pyogenes ATCC 8668 und, aufgrund seiner problemloseren Handhabung, Micrococcus luteus ATCC 9341. Testplatten mit Streptococcus pyogenes ATCC 8668: Der Testkeim mußte vor Herstellung der Testplatten auf Blutplatten mit Mucin [Medium: 500 ml Agar pH 7,4, 160 ml Mucinlösung (10 Gewichtsprozent), 3,5 ml Glucoselösung (50 Gewichtsprozent), 70 ml Hammelblut] frisch überimpft werden. […]

[9] = test system: Zellen; assay: Mode of action (bactericidal, lysis of cells); format: cell-based; conditions: leads to lysis of the cells; same as the culture broth
[10] = in vivo

## CN[C@@H]1[C@H](O)[C@H](NC)[C@H]2O[C@@]3(O)C(=O)C[C@@H](C)O[C@H]3O[C@@H]2[C@H]1O [Spectinomycin]
[1]
  Sonstige Resistenzen: 0,5 mg/ml

## [H]/N=C(/N)N[C@H]1[C@H](O)[C@@H](O)[C@H](O[C@@H]2O[C@@H](C)[C@](O)(C=O)[C@H]2O[C@@H]2O[C@@H](CO)[C@H](O)[C@@H](O)[C@@H]2NC)[C@@H](N/C(N)=N\[H])[C@@H]1O [Streptomycin]
[1]
  Sonstige Resistenzen: ≤ 1 mg/mL

## Epidermin: ribosomal synthetisiertes, heterodet tetracyclisches Dokosapeptidantibiotikum aus Staphylococcus epidermidis DSM 3095 (IASKFICTPGCAKTGSFNSYCC; also: heterodetic tetracyclic lantibiotic, rings and modified residues not placed; UniProt P08136 31-52, looked up)
[2]; in Chloroform, Aceton, Diethylether, Petrolether
  Löslichkeit: unlöslich
[2]; in Mischungen aus Wasser/Eisessig bzw. Methanol/Eisessig
  Löslichkeit: Sehr gut löslich
[2]; in niederen Alkoholen
  Löslichkeit: löslich
[3]; bei höheren pH-Werten (above pH 7)
  Stabilität: starker Aktivitätsabfall
[3]; pH=2 bis pH=7
  Stabilität: Stabil
[3]; tested on lyophilised butanol extract, pH 2-7
  Stabilität: stabil
[1]; adapted culture diluted to 10⁻⁶, plate with 0,5 mg/ml Epidermin, 24 Stunden 37°C
  Einzelkolonien: 94
[1]; adapted culture, 1,0 mg/ml Epidermin in Flüssigkultur
  Wachstum: noch gut gewachsen
[1]; against the Epidermin it produces itself
  Resistenz: resistent
[1]; resistance shown up to this concentration
  Epidermin-Resistenz: ≤ 1 mg/mL
[4]
  Wachstum: wuchs auch nach 48 Stunden Inkubation nicht
[5]; Abb. 13 Kurve 2: 10 µg/ml zu Beginn der logarithmischen Phase
  Wachstumsverlauf: Lyse
[5]; Abb. 13 Kurve 3: 10 µg/ml in der Mitte der logarithmischen Phase
  Wachstumsverlauf: Lyse
[5]; Abb. 13 Kurve 4: 2,5 µg/ml in der Mitte der logarithmischen Phase
  Wachstumsverlauf: Wachstumsverzögerung
[6]; Abb. 14 Kurve 2: 120 µg/ml zu Beginn der logarithmischen Phase
  Wachstumsverlauf: geringfügige Wachstumsverzögerung
[6]; Abb. 14 Kurve 3: 360 µg/ml in der Mitte der logarithmischen Phase
  Wachstumsverlauf: Wachstumsverzögerung
[6]; all concentrations tested so far
  Lyse: keine Lyse
[7]
  Empfindlichkeit verschiedener Mikroorganismen: fast ausschließlich auf grampositive Bakterien wirken
[7]; especially good against a whole series of gram-positive bacteria
  antibakterielle Wirksamkeit: sehr gute antibakterielle Wirksamkeit
[8]
  Wirksamkeit: sehr gute Wirksamkeit
[9]
  Wirkung: bakterizide Wirkung
[10]
  Verträglichkeit: sehr gut verträglich
  toxische Wirkungen: keine toxischen Wirkungen

## Nisin (ITSISLCTPGCKTGALMGCNMKTATCHCSIHVSK; also: lantibiotic: thioether rings and dehydro residues, not placed; UniProt P13068 24-57, looked up) [Vergleichsantibiotikum (vgl. DE-A-2 000 818 bzw. GB-B-1 182 156), Aktivität von 40000 units, reference compound]
[7]; Nisin mit einer Aktivität von 40000 units
  Empfindlichkeit verschiedener Mikroorganismen: fast ausschließlich auf grampositive Bakterien wirken
